Experimental data published in ChEMBL document CHEMBL1147216, “Parallel synthesis and SAR study of novel oxa-steroids as potent and selective progesterone receptor antagonists” (Bioorg Med Chem Lett, 2007).

Legend:
[1] = target: T1, Progesterone receptor (Homo sapiens, UniProt P06401); assay: Antagonist activity at human progesterone receptor assessed as inhibition of alkaline phosphatase activity in human T47D cells; assay type: functional, cell-based
T1 sequence (P06401 whole entry): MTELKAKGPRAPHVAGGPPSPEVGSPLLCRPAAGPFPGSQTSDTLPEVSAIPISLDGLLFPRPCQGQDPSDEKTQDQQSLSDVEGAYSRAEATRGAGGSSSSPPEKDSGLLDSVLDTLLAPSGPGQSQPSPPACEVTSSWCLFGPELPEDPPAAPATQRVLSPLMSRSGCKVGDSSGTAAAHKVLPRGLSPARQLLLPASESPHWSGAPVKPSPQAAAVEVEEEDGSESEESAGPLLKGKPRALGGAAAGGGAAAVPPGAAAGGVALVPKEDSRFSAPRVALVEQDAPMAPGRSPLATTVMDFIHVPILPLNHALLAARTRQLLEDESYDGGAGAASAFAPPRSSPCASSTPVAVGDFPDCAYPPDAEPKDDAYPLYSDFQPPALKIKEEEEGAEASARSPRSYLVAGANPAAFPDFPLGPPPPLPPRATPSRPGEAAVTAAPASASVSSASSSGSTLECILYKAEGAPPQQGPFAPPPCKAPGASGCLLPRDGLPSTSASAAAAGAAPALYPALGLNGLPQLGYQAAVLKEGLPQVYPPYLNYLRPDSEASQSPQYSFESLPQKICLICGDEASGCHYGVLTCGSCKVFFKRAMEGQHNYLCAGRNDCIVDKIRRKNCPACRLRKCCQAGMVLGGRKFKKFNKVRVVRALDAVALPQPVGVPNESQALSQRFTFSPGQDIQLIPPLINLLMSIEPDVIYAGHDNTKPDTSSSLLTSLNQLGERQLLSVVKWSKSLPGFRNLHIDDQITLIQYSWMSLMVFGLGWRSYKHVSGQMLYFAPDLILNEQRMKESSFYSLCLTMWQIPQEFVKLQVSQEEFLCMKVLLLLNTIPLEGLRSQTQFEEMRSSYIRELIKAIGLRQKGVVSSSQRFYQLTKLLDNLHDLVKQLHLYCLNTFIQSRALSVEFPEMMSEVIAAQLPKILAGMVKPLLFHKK

[2] = species on record: Homo sapiens; assay: Selectivity of human progesterone receptor over human glucocorticoid receptor
[3] = target: T2, Glucocorticoid receptor (Homo sapiens, UniProt P04150); assay: Antagonist activity at human glucocorticoid receptor assessed as inhibition of corticoid-induced transcription in human A549 cells by GRE-linked luciferase reporter gene assay; assay type: functional, cell-based
T2 sequence (P04150 whole entry): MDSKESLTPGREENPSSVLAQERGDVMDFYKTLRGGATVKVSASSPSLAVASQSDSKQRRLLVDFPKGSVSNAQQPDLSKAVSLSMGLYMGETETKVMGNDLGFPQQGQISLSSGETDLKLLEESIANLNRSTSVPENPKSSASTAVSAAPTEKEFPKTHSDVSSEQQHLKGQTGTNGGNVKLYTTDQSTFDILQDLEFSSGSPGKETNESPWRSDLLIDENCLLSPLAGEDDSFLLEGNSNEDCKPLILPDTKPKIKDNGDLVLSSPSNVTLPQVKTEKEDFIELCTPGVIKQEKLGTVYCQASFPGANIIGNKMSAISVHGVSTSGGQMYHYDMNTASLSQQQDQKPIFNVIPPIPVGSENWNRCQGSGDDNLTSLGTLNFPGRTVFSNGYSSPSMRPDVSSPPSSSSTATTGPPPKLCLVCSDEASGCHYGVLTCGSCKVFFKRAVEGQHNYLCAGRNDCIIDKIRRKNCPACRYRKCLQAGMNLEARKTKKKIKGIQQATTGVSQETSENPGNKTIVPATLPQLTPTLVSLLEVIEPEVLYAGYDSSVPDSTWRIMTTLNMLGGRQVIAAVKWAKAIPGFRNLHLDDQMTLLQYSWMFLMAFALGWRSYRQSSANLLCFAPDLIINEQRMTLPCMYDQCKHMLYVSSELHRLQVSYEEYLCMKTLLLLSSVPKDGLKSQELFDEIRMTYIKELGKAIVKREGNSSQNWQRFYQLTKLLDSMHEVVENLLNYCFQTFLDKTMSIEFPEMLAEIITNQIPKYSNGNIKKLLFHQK

| Compound | IC50 [1] | Ratio IC50 [2] | IC50 [3] |
| --- | --- | --- | --- |
| CN(C)c1ccc([C@H]2C[C@@]3(C)[C@@H](CC[C@@]3(O)C#Cc3ccccc3C(F)(F)F)[C@@H]3OCC4=CC(=O)CCC4=C32)cc1 | 0.0032 µM | 16 | 0.051 µM |
| CN(C)c1ccc([C@H]2C[C@@]3(C)[C@@H](CC[C@@]3(O)C#Cc3ccccc3F)[C@@H]3OCC4=CC(=O)CCC4=C32)cc1 | 0.0014 µM | 47 | 0.0651 µM |
| CN(C)c1ccc([C@H]2C[C@@]3(C)[C@@H](CC[C@@]3(O)C#Cc3ccccc3Cl)[C@@H]3OCC4=CC(=O)CCC4=C32)cc1 | 0.0011 µM | 59 | 0.0648 µM |
| CN(C)c1ccc([C@H]2C[C@@]3(C)[C@@H](CC[C@@]3(O)C#Cc3ccc(Cl)cc3)[C@@H]3OCC4=CC(=O)CCC4=C32)cc1 | 0.00061 µM | 71 | 0.0435 µM |
| CN(C)c1ccc([C@H]2C[C@@]3(C)[C@@H](CC[C@@]3(O)C#Cc3ccccc3Br)[C@@H]3OCC4=CC(=O)CCC4=C32)cc1 | 0.0086 µM | 7 | 0.0627 µM |
| CN(C)c1ccc([C@H]2C[C@@]3(C)[C@@H](CC[C@@]3(O)C#Cc3ccsc3)[C@@H]3OCC4=CC(=O)CCC4=C32)cc1 | 0.0016 µM | 35 | 0.056 µM |
| CC#C[C@]1(O)CC[C@H]2[C@@H]3OCC4=CC(=O)CCC4=C3[C@@H](c3ccc(N(C)C)cc3)C[C@@]21C |  | 12 |  |
| CN(C)c1ccc([C@H]2C[C@@]3(C)[C@@H](CC[C@@]3(O)C#Cc3ccc(C(C)(C)C)cc3)[C@@H]3OCC4=CC(=O)CCC4=C32)cc1 | 0.0195 µM | 3 | 0.0658 µM |
| COc1ccc(C#C[C@]2(O)CC[C@H]3[C@@H]4OCC5=CC(=O)CCC5=C4[C@@H](c4ccc(N(C)C)cc4)C[C@@]32C)cc1 | 0.0032 µM | 25 | 0.0803 µM |
| Cc1ccc(C#C[C@]2(O)CC[C@H]3[C@@H]4OCC5=CC(=O)CCC5=C4[C@@H](c4ccc(N(C)C)cc4)C[C@@]32C)cc1 | 0.0016 µM | 14 | 0.0221 µM |
| CN(C)c1ccc([C@H]2C[C@@]3(C)[C@@H](CC[C@@]3(O)C#Cc3ccncc3)[C@@H]3OCC4=CC(=O)CCC4=C32)cc1 | 0.039 µM | 6 | 0.247 µM |
| CN(C)c1ccc([C@H]2C[C@@]3(C)[C@@H](CC[C@@]3(O)C#Cc3ccc(Br)cc3)[C@@H]3OCC4=CC(=O)CCC4=C32)cc1 | 0.00094 µM | 33 | 0.0313 µM |
| CN(C)c1ccc([C@H]2C[C@@]3(C)[C@@H](CC[C@@]3(O)C#Cc3ccccn3)[C@@H]3OCC4=CC(=O)CCC4=C32)cc1 | 0.034 µM | 5 | 0.175 µM |
| CN(C)c1ccc([C@H]2C[C@@]3(C)[C@@H](CC[C@@]3(O)C#Cc3ccc(C(F)(F)F)cc3)[C@@H]3OCC4=CC(=O)CCC4=C32)cc1 | 0.00075 µM | 148 | 0.111 µM |
| Cc1ccccc1C#C[C@]1(O)CC[C@H]2[C@@H]3OCC4=CC(=O)CCC4=C3[C@@H](c3ccc(N(C)C)cc3)C[C@@]21C | 0.0058 µM | 20 | 0.113 µM |
| CN(C)c1ccc([C@H]2C[C@@]3(C)[C@@H](CC[C@@]3(O)C#Cc3ccc(C#N)cc3)[C@@H]3OCC4=CC(=O)CCC4=C32)cc1 | 0.0037 µM | 11 | 0.0413 µM |
| CN(C)c1ccc([C@H]2C[C@@]3(C)[C@@H](CC[C@@]3(O)C#Cc3cccnc3)[C@@H]3OCC4=CC(=O)CCC4=C32)cc1 | 0.021 µM | 16 | 0.342 µM |

Next, values leading:

| IC50 [1] | Ratio IC50 [2] | IC50 [3] | Compound |
| --- | --- | --- | --- |
| 0.001 µM | 57 | 0.0566 µM | CN(C)c1ccc([C@H]2C[C@@]3(C)[C@@H](CC[C@@]3(O)C#Cc3cccc(F)c3)[C@@H]3OCC4=CC(=O)CCC4=C32)cc1 |
|  | 217 |  | CN(C)c1ccc([C@H]2C[C@@]3(C)[C@@H](CC[C@@]3(O)C#Cc3ccccc3)[C@@H]3OCC4=CC(=O)CCC4=C32)cc1 |
| 0.00091 µM | 38 | 0.0344 µM | CN(C)c1ccc([C@H]2C[C@@]3(C)[C@@H](CC[C@@]3(O)C#Cc3cc(F)cc(F)c3)[C@@H]3OCC4=CC(=O)CCC4=C32)cc1 |
| 0.0029 µM | 13 | 0.0363 µM | Cc1cccc(C#C[C@]2(O)CC[C@H]3[C@@H]4OCC5=CC(=O)CCC5=C4[C@@H](c4ccc(N(C)C)cc4)C[C@@]32C)c1 |
| 0.0027 µM | 17 | 0.0454 µM | CN(C)c1ccc([C@H]2C[C@@]3(C)[C@@H](CC[C@@]3(O)C#Cc3cccc(C(F)(F)F)c3)[C@@H]3OCC4=CC(=O)CCC4=C32)cc1 |
| 0.0125 µM | 4 | 0.0489 µM | CN(C)c1ccc([C@H]2C[C@@]3(C)[C@@H](CC[C@@]3(O)C#Cc3cccc(Cl)c3)[C@@H]3OCC4=CC(=O)CCC4=C32)cc1 |
| 0.00027 µM | 139 | 0.0376 µM | CN(C)c1ccc([C@H]2C[C@@]3(C)[C@@H](CC[C@@]3(O)C#Cc3ccc(F)cc3)[C@@H]3OCC4=CC(=O)CCC4=C32)cc1 |
